target: T1, wild-type HIV reverse transcriptase (Human immunodeficiency virus type 1 group M subtype B, UniProt P04585); assay: Activity on wild type reverse transcriptase (Table 1 IC50 WT); assay type: biochemical; conditions: not given
T1 construct: wild-type and four mutant HIV reverse transcriptases
Experimental: Using similar methods as described above, 2-[5-bromo-4-(4-cyclopropylnaphthalen-1-yl)-4H-[1,2,4]triazol-3-ylsulfanyl]-N-(2-methyl-4-sulfamoylphenyeacetamide and 2-[5-bromo-4-(4-ethylnaphthalen-1-yl)-4H-[1,2,4]triazol-3-ylsulfanyl]-N-(2-chloro-4-sulfamoylphenyl)-acetamide were synthesized, as were the N-4-carbamyl analog, 2-[5-bromo-4-(4-ethyl-naphthalen-1-yl)-4H-[1,2,4]triazol-3-ylsulfanyl]-N-(2-chloro-4-carbamoylphenyl)-acetamide and the N-4-carboxyl analog. Each of the compounds was tested against a panel of mutant HIV reverse transcriptases, including 20 of the 22 of the mutants that are found in about 2% or more of the patient samples that are resistant to the most widely used non-nucleoside HIV-RT inhibitor efavirenz ((4S)-6-chloro-4-(cyclopropylethynyl)-1,4-dihydro-4-(trifluoromethyl)-2H-3,1-benzoxazin-2-one). […] In most cases both criteria were met. […] […].
Compounds of the invention were tested against the wild-type and four mutant HIV reverse transcriptases. The results are listed in Table 1 as EC50 (nM) and IC50 (nM). In the Table, A represents <50 nM, B is between 50 and 100 nM, and C is >100 nM. ND is not determined.

Row | SMILES | IC50 [nM]
1 | Cc1cc(S(N)(=O)=O)ccc1NC(=O)CSc1nnc(Br)n1-c1ccc(F)c2ccccc12 [compound 62] | < 50
2 | Cc1ccc2c(C)cc(C)c(-n3c(SCC(=O)Nc4ccc(S(N)(=O)=O)cc4Cl)nnc3C(F)F)c2n1 [compound 63] | < 50
3 | Cc1ccc2c(C)cc(C)c(-n3c(SCC(=O)Nc4ccc(S(N)(=O)=O)cc4C)nnc3C(F)F)c2n1 [compound 64] | < 50
4 | Cc1cc(S(N)(=O)=O)ccc1NC(=O)CSc1nnc(CF)n1-c1ccc(C)c2c1CCCC2 [compound 65] | < 50
5 | NS(=O)(=O)c1ccc(NC(=O)CSc2nncn2-c2ccc(C3CC3)c3ccccc23)c(Cl)c1 [compound 66] | < 50
6 | CCc1ccc(-n2c(CF)nnc2SCC(=O)Nc2ccc(S(N)(=O)=O)cc2Cl)c2c1CCCC2 [compound 67] | < 50
7 | NS(=O)(=O)c1ccc(NC(=O)CSc2nnc(C(F)F)n2-c2ccc(C3CCCC3)c3ccccc23)c(Cl)c1 [compound 68] | < 50
8 | NS(=O)(=O)c1ccc(NC(=O)CSc2nnc(C(F)F)n2-c2ccc(C3CCC3)c3ccccc23)c(Cl)c1 [compound 69] | < 50
9 | CCc1ccc(-n2c(I)nnc2SCC(=O)Nc2ccc(S(N)(=O)=O)cc2Cl)c2ccccc12 [compound 70] | < 50
10 | CC(C)c1ccc(-n2c(SCC(=O)Nc3ccc(S(N)(=O)=O)cc3Cl)nnc2C(F)F)c2ccccc12 [compound 71] | < 50
11 | COc1ccc2c(C3CC3)ccc(-n3c(Br)nnc3SCC(=O)Nc3ccc(S(N)(=O)=O)cc3Cl)c2c1 [compound 72] | < 50

target: mutant HIV reverse transcriptases (Human immunodeficiency virus type 1, UniProt P12497, Y775L, cells depend on it); assay: not given; assay type: cell-based; conditions: not given

Row | SMILES | EC50 [nM]
12 | Cc1cc(S(N)(=O)=O)ccc1NC(=O)CSc1nnc(Br)n1-c1ccc(F)c2ccccc12 [compound 62] | > 100
13 | Cc1ccc2c(C)cc(C)c(-n3c(SCC(=O)Nc4ccc(S(N)(=O)=O)cc4Cl)nnc3C(F)F)c2n1 [compound 63] | < 50
14 | Cc1ccc2c(C)cc(C)c(-n3c(SCC(=O)Nc4ccc(S(N)(=O)=O)cc4C)nnc3C(F)F)c2n1 [compound 64] | < 50
15 | Cc1cc(S(N)(=O)=O)ccc1NC(=O)CSc1nnc(CF)n1-c1ccc(C)c2c1CCCC2 [compound 65] | 50 to 100
16 | NS(=O)(=O)c1ccc(NC(=O)CSc2nncn2-c2ccc(C3CC3)c3ccccc23)c(Cl)c1 [compound 66] | > 100
17 | CCc1ccc(-n2c(CF)nnc2SCC(=O)Nc2ccc(S(N)(=O)=O)cc2Cl)c2c1CCCC2 [compound 67] | < 50
18 | NS(=O)(=O)c1ccc(NC(=O)CSc2nnc(C(F)F)n2-c2ccc(C3CCCC3)c3ccccc23)c(Cl)c1 [compound 68] | > 100
19 | NS(=O)(=O)c1ccc(NC(=O)CSc2nnc(C(F)F)n2-c2ccc(C3CCC3)c3ccccc23)c(Cl)c1 [compound 69] | < 50
20 | CCc1ccc(-n2c(I)nnc2SCC(=O)Nc2ccc(S(N)(=O)=O)cc2Cl)c2ccccc12 [compound 70] | < 50
21 | CC(C)c1ccc(-n2c(SCC(=O)Nc3ccc(S(N)(=O)=O)cc3Cl)nnc2C(F)F)c2ccccc12 [compound 71] | < 50
22 | COc1ccc2c(C3CC3)ccc(-n3c(Br)nnc3SCC(=O)Nc3ccc(S(N)(=O)=O)cc3Cl)c2c1 [compound 72] | < 50

target: mutant HIV reverse transcriptases (Human immunodeficiency virus type 1, UniProt P12497, Y768C, cells depend on it); assay: not given; assay type: cell-based; conditions: not given

Row | SMILES | EC50 [nM]
23 | Cc1cc(S(N)(=O)=O)ccc1NC(=O)CSc1nnc(Br)n1-c1ccc(F)c2ccccc12 [compound 62] | < 50
24 | Cc1ccc2c(C)cc(C)c(-n3c(SCC(=O)Nc4ccc(S(N)(=O)=O)cc4Cl)nnc3C(F)F)c2n1 [compound 63] | < 50
25 | Cc1ccc2c(C)cc(C)c(-n3c(SCC(=O)Nc4ccc(S(N)(=O)=O)cc4C)nnc3C(F)F)c2n1 [compound 64] | < 50
26 | Cc1cc(S(N)(=O)=O)ccc1NC(=O)CSc1nnc(CF)n1-c1ccc(C)c2c1CCCC2 [compound 65] | < 50
27 | NS(=O)(=O)c1ccc(NC(=O)CSc2nncn2-c2ccc(C3CC3)c3ccccc23)c(Cl)c1 [compound 66] | < 50
28 | CCc1ccc(-n2c(CF)nnc2SCC(=O)Nc2ccc(S(N)(=O)=O)cc2Cl)c2c1CCCC2 [compound 67] | < 50
29 | NS(=O)(=O)c1ccc(NC(=O)CSc2nnc(C(F)F)n2-c2ccc(C3CCCC3)c3ccccc23)c(Cl)c1 [compound 68] | < 50
30 | NS(=O)(=O)c1ccc(NC(=O)CSc2nnc(C(F)F)n2-c2ccc(C3CCC3)c3ccccc23)c(Cl)c1 [compound 69] | < 50
31 | CCc1ccc(-n2c(I)nnc2SCC(=O)Nc2ccc(S(N)(=O)=O)cc2Cl)c2ccccc12 [compound 70] | < 50
32 | CC(C)c1ccc(-n2c(SCC(=O)Nc3ccc(S(N)(=O)=O)cc3Cl)nnc2C(F)F)c2ccccc12 [compound 71] | < 50
33 | COc1ccc2c(C3CC3)ccc(-n3c(Br)nnc3SCC(=O)Nc3ccc(S(N)(=O)=O)cc3Cl)c2c1 [compound 72] | < 50

system: wild type HIV-1; assay: microbe, parasite or virus in culture; assay type: cell-based, human immunodeficiency virus type 1 (HIV-1); conditions: Human immunodeficiency virus 1, Hela-JC53, read-out: EC50 WT

Row | SMILES | EC50 [nM]
34 | Cc1cc(S(N)(=O)=O)ccc1NC(=O)CSc1nnc(Br)n1-c1ccc(F)c2ccccc12 [compound 62] | < 50
35 | Cc1ccc2c(C)cc(C)c(-n3c(SCC(=O)Nc4ccc(S(N)(=O)=O)cc4Cl)nnc3C(F)F)c2n1 [compound 63] | < 50
36 | Cc1ccc2c(C)cc(C)c(-n3c(SCC(=O)Nc4ccc(S(N)(=O)=O)cc4C)nnc3C(F)F)c2n1 [compound 64] | < 50
37 | Cc1cc(S(N)(=O)=O)ccc1NC(=O)CSc1nnc(CF)n1-c1ccc(C)c2c1CCCC2 [compound 65] | < 50
38 | NS(=O)(=O)c1ccc(NC(=O)CSc2nncn2-c2ccc(C3CC3)c3ccccc23)c(Cl)c1 [compound 66] | < 50
39 | CCc1ccc(-n2c(CF)nnc2SCC(=O)Nc2ccc(S(N)(=O)=O)cc2Cl)c2c1CCCC2 [compound 67] | < 50
40 | NS(=O)(=O)c1ccc(NC(=O)CSc2nnc(C(F)F)n2-c2ccc(C3CCCC3)c3ccccc23)c(Cl)c1 [compound 68] | < 50
41 | NS(=O)(=O)c1ccc(NC(=O)CSc2nnc(C(F)F)n2-c2ccc(C3CCC3)c3ccccc23)c(Cl)c1 [compound 69] | < 50
42 | CCc1ccc(-n2c(I)nnc2SCC(=O)Nc2ccc(S(N)(=O)=O)cc2Cl)c2ccccc12 [compound 70] | < 50
43 | CC(C)c1ccc(-n2c(SCC(=O)Nc3ccc(S(N)(=O)=O)cc3Cl)nnc2C(F)F)c2ccccc12 [compound 71] | < 50
44 | COc1ccc2c(C3CC3)ccc(-n3c(Br)nnc3SCC(=O)Nc3ccc(S(N)(=O)=O)cc3Cl)c2c1 [compound 72] | < 50

— US8946273B2, “S-Triazolyl alpha-mercapto acetanilides as inhibitors of HIV reverse transcriptase” (priority 2011, dated 2015)
